We go through 1 compound from PMC3465347, “Regulation of NF-κB Activation through a Novel PI-3K-Independent and PKA/Akt-Dependent Pathway in Human Umbilical Vein Endothelial Cells” (PLoS ONE, 2012).

The test system of data set [1] is ICAM-1 mRNA in endothelial cells. Kind of data set: RT-PCR of ICAM-1 transcript. Format: cell-based, human. The conditions noted are these: 400 µM pretreatment, TNF-α 10 ng/ml 4 h. Here is the method:
(§1) In order to examine whether MPTAG reduced the mRNA transcript levels of cell adhesion molecules genes, the endothelial cells were pretreated with 400 µM MPTAG for 2 h before induction with TNF-α for 4 h followed by RT-PCR. RNA was isolated from MPTAG-treated cells according to a modified guanidinium thiocyanate procedure. The expression of the transcripts for ICAM-1, VCAM-1 and E-selectin was evaluated by RT-PCR [45]. β-Actin levels expressed under similar conditions were used as a loading control.

A further data set deals with T1, IKK-β (Homo sapiens, UniProt O14920).
T1 construct: Endogenous IKK complexes were immunoprecipitated in the following reaction mixtures; endogenous in cells; host or cells: HUVEC (uninduced and TNF-α-induced), anti-IKK-β immunoprecipitate
Kind of data set: Direct IKK-β kinase assay on immunoprecipitated IKK-β. Format: biochemical. The conditions noted are these: immunoprecipitated IKK-β incubated with MPTAG. The procedure:
(§2) In brief, confluent HUVECs were incubated with or without MPTAG and were stimulated with TNF-α (10 ng/ml) for 15 mins. The cells were washed and lysed in Lysis buffer containing 50 mM HEPES, pH 7.6, 10% glycerol, 1 mM sodium orthovanadate, 100 mM NaCl, 1% NP-40, 1 mM EDTA and protease inhibitor cocktail and allowed to swell on ice for 45 mins. Following centrifugation at 13,000 rpm for 45 mins, the supernatants were collected as “total cell extracts” and stored at −70°C. Immunoprecipitation was performed as per the instructions of Protein G immunoprecipitation kit (Sigma Aldrich, USA). Endogenous IKK complexes were immunoprecipitated in the following reaction mixtures: 100–300 µg of total cell extracts were incubated with 2–4 µg anti-IKK-β or PKAα antibody in 100 µl 1× IP buffer. After incubation for 16 h at 4°C with constant shaking, 50 µl of activated protein G beads were added and the mixture was incubated under rotation for an additional 3 h at 4°C.
Kinase assay was performed as previously described. Immunoprecipitates from 100 µg of total cell extracts were used for kinase assays. The reaction mixture consisted of kinase buffer (20 mM Tris Cl, pH 7.6, 1 mM EDTA, 1 mM sodium orthovanadate, 20 mM MgCl2, 2 mM DTT), 2 µg GST-IκBα(1–54), 5 µM ATP and 1 µCi [γ ^32P] ATP in a volume of 30 µl. […]

The test system of data set [2] is TNF-α-induced VCAM-1 expression on human endothelial cells. Briefly: Cell-ELISA for VCAM-1 expression. It is filed as cell-based. As to conditions: added 2–4 h prior to TNF-α stimulation; data not shown. Here is the method: The endothelial cells were incubated with or without MPG and its derivatives at various concentrations for 2 h followed by treatment with TNF-α (10 ng/ml) for 16 h for ICAM-1 and VCAM-1 expression and 4 h for E-selectin expression. A Cell-ELISA was used to assess the expression of ICAM-1, VCAM-1 and E-selectin on the surface of endothelial cells as described previously.
(ELISA stands for enzyme-linked immunosorbent assay.)

In data set [3] the test system is NF-κB DNA-binding activity in HUVECs. Briefly: NF-κB activation assay (EMSA) in nuclear extracts. It is filed as cell-based, human. The procedure:
The endothelial cells were subjected to the indicated treatments followed by induction with TNF-α for indicated time points or 30 mins. The cells were then washed with PBS and dislodged using a cell scraper. The cytoplasmic and nuclear extracts were prepared as described previously, [46].
NF-κB activation in the nuclear extracts of human endothelial cells was assessed by electrophoretic mobility shift assay (EMSA) as described previously, [46]. For supershift experiment, nuclear extracts prepared from unstimulated and TNF-α-stimulated cells were incubated with antibodies against the p50 or p65 subunit of NF-κB or -α-tubulin for 15 mins at 37°C before the complex was analyzed by EMSA. Addition of equal amount of radioactive-labelled probe to all the samples was indicated by the similar intensity of the unincorporated probe observed towards the end of the gel.
For orientation: In EMSA bound probe runs differently from free probe, usually more slowly.

The next data set relates to PI-3K. Kind of data set: PI-3K activity assay. The conditions noted are these: pretreatment, HUVECs. It is filed as cell-based, human. The text has this:
The catalytic domain of PI-3K was immunoprecipitated from the stimulated and unstimulated endothelial in presence and absence of various compound treatment using an anti-p85α (N-18) antibody. The immunoprecipated proteins were subjected to kinase activity assay using a PI substrate, diC8 followed by detection of the PI(3)P as per the instructions of the Class III PI-3kinase kit (Echelon, USA).

Data set [4] has as its system IκBα in endothelial cells. Briefly: IκBα phosphorylation and degradation western blot. Format: cell-based, human. The conditions noted are these: 400 µM, TNF-α 30 mins. Here is the method:
Nuclear and cytoplasmic extracts were fractionated on SDS-PAGE with equal amount of proteins per well and transferred onto PVDF membranes and those membranes were incubated with appropriate primary antibodies and treated with HRP conjugated secondary antibodies followed by detection with DAB-H2O2 system. β-tubulin, α-actin and Lamin B1 were used as loading controls. Antibodies against NF-κBp65, phosphoNF-κBp65, IκBα, phosphoIκBα, IKK-β, Akt, phosphoAkt (Ser473) and phosphoAkt (Thr308) were used.
(A western blot detects proteins with antibodies after separation by electrophoresis.)

Data set [5] has as its system VCAM-1 mRNA in endothelial cells. Kind of data set: RT-PCR of VCAM-1 transcript. As to conditions: 400 µM pretreatment, TNF-α 10 ng/ml 4 h. It is filed as cell-based, human. The procedure: as §1
Data set [6] has as its system human endothelial cells (HUVECs). Kind of data set: MTT cytotoxicity assay. Format: cell-based. The procedure: The cytotoxicity of MPG and its derivatives was analyzed by colorimetric assay using MTT (Thiazolyl blue tetrazolium bromide) reagent as described previously. All experiments were performed at least 3 times in triplicate wells. From this assay, the percentage viability (% viability) of the cells at various concentrations of each compound was determined by normalization to control wells that contained cells incubated in vehicle (0.25% DMSO or cell culture medium) and which were considered 100% viable. The highest concentration at which the viability of the cells was >95% was denoted as the maximum tolerable concentration for that compound.

Data set [7] relates to association of Akt with IKK-β. Briefly: Akt/IKK-β association (co-immunoprecipitation). It is filed as cell-based, human. As to conditions: dose-dependent and time-dependent. Here is the method:
as §2
Nuclear and cytoplasmic extracts were fractionated on SDS-PAGE with equal amount of proteins per well and transferred onto PVDF membranes and those membranes were incubated with appropriate primary antibodies and treated with HRP conjugated secondary antibodies followed by detection with DAB-H2O2 system. β-tubulin, α-actin and Lamin B1 were used as loading controls. […]

Entries after “also recorded” stand apart in the source; their conditions may differ.

T1 sequence (O14920 whole entry): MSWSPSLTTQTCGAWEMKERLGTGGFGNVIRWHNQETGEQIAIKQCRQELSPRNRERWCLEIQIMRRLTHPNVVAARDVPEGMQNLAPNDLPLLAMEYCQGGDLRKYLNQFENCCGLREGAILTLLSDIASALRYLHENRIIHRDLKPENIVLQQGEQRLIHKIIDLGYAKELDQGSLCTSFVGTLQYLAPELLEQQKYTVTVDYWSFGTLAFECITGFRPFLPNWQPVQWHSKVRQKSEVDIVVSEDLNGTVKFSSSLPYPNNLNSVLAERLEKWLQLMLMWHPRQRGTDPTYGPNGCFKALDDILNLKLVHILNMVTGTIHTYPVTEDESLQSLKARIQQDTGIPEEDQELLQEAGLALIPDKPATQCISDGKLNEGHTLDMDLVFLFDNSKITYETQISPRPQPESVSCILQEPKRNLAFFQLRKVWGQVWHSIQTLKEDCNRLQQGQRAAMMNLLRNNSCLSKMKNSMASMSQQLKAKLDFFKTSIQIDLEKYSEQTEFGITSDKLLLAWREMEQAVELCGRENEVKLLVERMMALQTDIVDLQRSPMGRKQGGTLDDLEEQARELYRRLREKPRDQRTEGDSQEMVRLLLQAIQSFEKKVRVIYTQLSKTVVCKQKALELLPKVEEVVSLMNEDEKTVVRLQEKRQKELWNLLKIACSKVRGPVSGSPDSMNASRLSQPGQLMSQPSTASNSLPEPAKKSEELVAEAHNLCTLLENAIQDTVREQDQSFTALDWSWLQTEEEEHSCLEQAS

For the compound `CC(=O)OC[C@H]1O[C@@H](Oc2c(C)occc2=O)[C@H](OC(C)=O)[C@@H](OC(C)=O)[C@@H]1OC(C)=O` [MPTAG, 2-methyl-pyran-4-one-3-O-β-D-2′,3′,4′,6′-tetra-O-acetyl glucopyranoside], the “TNF-α-induced ICAM-1 mRNA level” value in data set [1] was “significantly reduced”. Further, the “activity of IKK-β by direct interaction” value at IKK-β is reported as “did not affect”. Also, the “inhibition of VCAM-1” value in data set [2] is on record as “maximum inhibition”. For the same compound, in [3] (H-89 then MPTAG, TNF-α), the “TNF-α-induced NF-κB activation (EMSA), H-89 treatment preceding MPTAG” value is listed as “remained increased”. In addition, the “TNF-α-induced NF-κB DNA-binding activity / NF-κB activation (EMSA)” value in data set [3] (MPTAG 400 µM, dose-dependent) is listed as “almost complete inhibition; also recorded: significantly inhibited”. Also, in data set [3] (MPTAG then H-89, TNF-α), the “TNF-α-induced NF-κB activation (EMSA), MPTAG treatment preceding H-89” value is recorded as “inhibited”. In addition, in data set [3] (without TNF-α stimulation), the “basal NF-κB activation” value was “no significant inhibitory effect”. In addition, the “TNF-α-induced NF-κB activation (EMSA) in presence or absence of wortmannin” value in data set [3] (wortmannin before MPTAG, then TNF-α) is “inhibited similarly”. Further, the “TNF-α-induced PI-3K activity” value with PI-3K was “no effect”. In data set [4], the “TNF-α-induced degradation of IκBα” value is on record as “inhibited” and the “TNF-α-induced phosphorylation of IκBα” value is recorded as “inhibited”. The “TNF-α-induced VCAM-1 mRNA level” value in data set [5] was “significantly reduced”. In data set [6] (400 µM), the “morphology and viability in HUVECs” value is on record as “without affecting”. The “cytotoxicity compared to parent compound MPG and the other two derivatives” value in [6] (MTT, human endothelial cells) is reported as “less cytotoxic”. The “TNF-α-induced association of Akt with IKK-β” value in data set [7] was “significantly prevented”.
